Where two headings read alike, the source gives them in different places.
Experiments:
[1] = Cytotoxicity assay (XTT method); assay type: cell-based, Human; settings: human, mean ± SD; for viability at 72 h, 20 µM / viability at 72 h, 200 µM: Huh-7 cells, XTT; for viability at 72 h, 20 µM: read-out: Huh-7 Cell % viability at 20 μM; for viability at 72 h, 200 µM: read-out: Huh-7 Cell % viability at 200 μM; for CC50 at 72 h: uninfected Huh-7 cells, read-out: CC50 (concentration causing a 50% growth inhibition of uninfected Huh-7 cells)
Protocol: For cytotoxicity tests, run in parallel with antiviral assays, plates at an initial density of 5 × 10^3 cells/well were treated with or without serial dilutions of test compounds. Cell viability was determined after 72 h at 37 °C in a humidified CO2 (5%) atmosphere by the (2,3-bis[2-methyloxy-4-nitro-5-sulfophenyl]-2H-tetrazolium-5-carboxanilide) (XTT) method.

[2] = tested on: DENV2; assay: microbe, parasite or virus in culture; assay type: cell-based, dengue virus; settings: for anti-DENV activity in words / inhibition at 10 µM / DENV2 % Inhibition at 10 μM: 10 μM; for anti-DENV activity in words: >32% inhibition of DENV-2 at 10 μM considered as active; for inhibition at 1 µM / inhibition at 10 µM / EC50: Dengue virus; for inhibition at 1 µM / inhibition at 10 µM: DENV2, 72 h; for inhibition at 1 µM / inhibition at 10 µM / DENV2 % Inhibition at 10 μM: Huh-7-DV-Fluc cells, three days; for SI (selectivity index, CC50/EC50): CC50 Huh-7 / EC50 DENV
Protocol: Anti-DENV activities were determined by firefly luciferase activity.
Huh-7-DV-Fluc cells were seeded in 24-well plates at a density of 2 × 10^4 cells per well, and treated with the 3-arylquinoxaline compounds at two concentrations (1 and 10 μM) or 0.1% DMSO as control. After three days of incubation, the luciferase activity assay was performed using the Bright-Glo Luciferase assay system (Promega, Madison, WI, USA) according to the manufacturer’s instructions.

[3] = DENV2, DENV replication, mean ± SD, read-out: EC50 (concentration resulting in a 50% inhibition in virus production)

SMILES	viability at 72 h, 20 µM [1]	viability at 72 h, 200 µM [1]	anti-DENV activity in words [2]	inhibition at 1 µM ([2]; mean ± SD)	inhibition at 10 µM ([2]; mean ± SD)	melting point	DENV2 % Inhibition at 10 μM ([2]; mean ± SD)	CC50 at 72 h [1]	SI (selectivity index, CC50/EC50) [2]	EC50 [2, 3]	EC50 ([2]; DENV2, read-out: EC50 (concentration resulting in a 50% inhibition in virus production))
COc1ccc(C(=O)c2nc3cc(Cl)c(Cl)cc3nc2-c2ccc(OC)cc2)cc1 [Compound 26b, [6,7-Dichloro-3-(4-methoxyphenyl)quinoxalin-2-yl](4-methoxyphenyl)methanone]	104 ± 4.22%	99.1 ± 2.4%	inactive	1.17 ± 0.41%	19.3 ± 3.85%	178.8 to 179 °C					
COc1ccc(-c2nc3ccccc3nc2C(=O)c2ccccc2)cc1 [Compound 25a, [3-(4-Methoxyphenyl)quinoxalin-2-yl](phenyl)methanone]	101 ± 2.39%	100 ± 4.59%		40.4 ± 2.22%	47.5 ± 3.51%	93.9 to 98.2 °C					
COc1ccc(C(=O)c2nc3ccccc3nc2-c2ccc(OC)cc2)cc1 [Compound 25b, (4-Methoxyphenyl)[3-(4-methoxyphenyl)quinoxalin-2-yl]methanone]	107 ± 3.03%	99.4 ± 2.14%		41.5 ± 3.25%	49.7 ± 4.38%	144.5 to 146.2 °C					
COc1ccc(C(O)c2nc3ccccc3nc2-c2ccc(F)cc2)cc1 (stereo not shown) [Compound 17b, [3-(4-Fluorophenyl)quinoxalin-2-yl](4-methoxyphenyl)methanol]	102 ± 1.98%	101 ± 1.27%		19.2 ± 3.5%	22%	173 to 174.7 °C	22.89 ± 4.54%				
OC(c1ccccc1)c1nc2cc(Cl)c(Cl)cc2nc1-c1ccccc1 (stereo not shown) [Compound 16a, (6,7-Dichloro-3-phenylquinoxalin-2-yl)(phenyl)methanol]	108 ± 8.91%	20.6 ± 5.37%		1.97 ± 0.72%	6.42 ± 2.97%	136.4 to 136.9 °C					
COc1ccc(C(=O)c2nc3ccccc3nc2-c2ccc(F)cc2)cc1 [Compound 23b, [3-(4-Fluorophenyl)quinoxalin-2-yl](4-methoxyphenyl)methanone]	104 ± 1.85%	103.3 ± 1.03%		16.4 ± 3.11%	33.6 ± 4.21%	147.6 to 147.9 °C					
O=C(c1ccccc1)c1nc2ccccc2nc1-c1ccc(F)cc1 [Compound 23a, [3-(4-Fluorophenyl)quinoxalin-2-yl](phenyl)methanone]	98.6 ± 5.68%	87.6 ± 5.75%		34.2 ± 5.12%	40.8 ± 2.58%	94.1 to 96.6 °C					
O=C(c1ccccc1)c1nc2cc(Cl)c(Cl)cc2nc1-c1ccc(F)cc1 [Compound 24a, (6,7-Dichloro-3-(4-fluorophenyl)quinoxalin-2-yl)(phenyl)methanone]	106 ± 2.12%	91.9 ± 2.83%		2.54 ± 1.21%	23.5 ± 3.71%	184.3 to 186.4 °C					
OC(c1ccccc1)c1nc2cc(Cl)c(Cl)cc2nc1-c1ccc(F)cc1 (stereo not shown) [Compound 18a, [6,7-Dichloro-3-(4-fluorophenyl)quinoxalin-2-yl](phenyl)methanol]	102 ± 3.96%	21.5 ± 1.6%		3.41 ± 1.11%	6.74 ± 1.57%	150 to 150.2 °C					
COc1ccc(-c2nc3cc(Cl)c(Cl)cc3nc2C(=O)c2ccccc2)cc1 [Compound 26a, [6,7-Dichloro-3-(4-methoxyphenyl)quinoxalin-2-yl](phenyl)methanone]	99.4 ± 6.5%	35.3 ± 4.95%		1.95 ± 0.82%	14.5 ± 2.55%	173.9 to 174.3 °C					
O=C(c1ccc(O)cc1)c1nc2ccccc2nc1-c1ccc(O)cc1 [Compound 29, (4-Hydroxyphenyl)(3-(4-hydroxyphenyl)quinoxalin-2-yl)methanone]	104 ± 2.91%	51.9 ± 1.62%		2.36 ± 1.11%	4.25 ± 1.39%						
COc1ccc(C(=O)c2nc3cc(Cl)c(Cl)cc3nc2-c2ccccc2)cc1 [Compound 22b, (6,7-Dichloro-3-phenylquinoxalin-2-yl)(4-methoxyphenyl)methanone]	103 ± 8.3%	92 ± 3.08%		5.19 ± 2.78%	24.7 ± 1.89%	171.9 to 172.3 °C					
COc1ccc(-c2nc3cc(Cl)c(Cl)cc3nc2C(O)c2ccc(OC)cc2)cc1 (stereo not shown) [Compound 20b, [6,7-Dichloro-3-(4-methoxyphenyl)quinoxalin-2-yl](4-methoxyphenyl)methanol]	95.5 ± 3.96%	34.2 ± 4.97%	inactive	2.75 ± 1.69%	4.39 ± 1.52%	144.1 to 144.5 °C					
COc1ccc(C(O)c2nc3cc(Cl)c(Cl)cc3nc2-c2ccccc2)cc1 (stereo not shown) [Compound 16b, (6,7-Dichloro-3-phenylquinoxalin-2-yl)(4-methoxyphenyl)methanol]	104 ± 4.18%	73 ± 9.05%	inactive	2.41 ± 1.48%	9%	157.2 to 157.6 °C	9.46 ± 2.88%				
OC(c1ccccc1)c1nc2ccccc2nc1-c1ccc(F)cc1 (stereo not shown) [Compound 17a, [3-(4-Fluorophenyl)quinoxalin-2-yl](phenyl)methanol]	96.3 ± 3.52%	73.3 ± 6.57%		2.58 ± 0.85%	4.78 ± 1.93%	157.4 to 158 °C					
Oc1ccc(Cc2nc3ccccc3nc2-c2ccc(O)cc2)cc1						184.8 to 185.9 °C					
COc1ccc(C(O)c2nc3ccccc3nc2-c2ccccc2)cc1 (stereo not shown) [Compound 15b, (4-Methoxyphenyl)(3-phenylquinoxalin-2-yl)methanol]	103 ± 1.79%	61.4 ± 2.67%	moderately active	24.3 ± 2.51%	48%	166 to 168.6 °C	48.67 ± 4.71%				
COc1ccc(-c2nc3ccccc3nc2C(O)c2ccc(OC)cc2)cc1 (stereo not shown) [Compound 19b, (4-Methoxyphenyl)[3-(4-methoxyphenyl)quinoxalin-2-yl]methanol]	96.4 ± 1.24%	21.3 ± 1.55%		35.5 ± 4.82%	47.7 ± 5.41%	132.4 to 136 °C					
OC(c1ccccc1)c1nc2ccccc2nc1-c1ccccc1 (stereo not shown) [Compound 15a, Phenyl(3-phenylquinoxalin-2-yl)methanol]	105 ± 5.66%	59.9 ± 8.33%	inactive	2.13 ± 1.12%	5.31 ± 1.73%	146 to 147 °C					
O=C(c1ccc(O)cc1)c1nc2ccccc2nc1-c1ccccc1 [Compound 27, (4-Hydroxyphenyl)(3-phenylquinoxalin-2-yl)methanone]	102 ± 2.84%	18.4 ± 2.33%		44.9 ± 3.68%	48.7 ± 3.48%	196.5 to 199.3 °C					
O=C(c1ccccc1)c1nc2cc(Cl)c(Cl)cc2nc1-c1ccccc1 [Compound 22a, (6,7-Dichloro-3-phenylquinoxalin-2-yl)(phenyl)methanone]	109 ± 1.36%	103 ± 2.67%		12.7 ± 3.91%	19.7 ± 4.17%	154.3 to 156.8 °C					
O=C(c1ccccc1)c1nc2ccccc2nc1-c1ccccc1 [Compound 21a, Phenyl(3-phenylquinoxalin-2-yl)methanone]	107 ± 2.3%	79.5 ± 7.07%	inactive	2.76 ± 1.55%	7.98 ± 2.14%						
O=C(c1ccc(O)cc1)c1nc2ccccc2cc1-c1ccc(O)cc1 [Compound 4, 2-(4-hydroxybenzoyl)-3-(4-hydroxyphenyl)quinoline, reference compound]	96.6 ± 8.78%	41.4 ± 5.71%		11.2 ± 2.31%	41.2 ± 2.88%			164 ± 2.32 µM	12.44	13.2 ± 1.23 µM	
COc1ccc(-c2cc3ccccc3nc2C(O)c2ccccc2)cc1 (stereo not shown) [Compound 3, 2-(hydroxyphenylmethyl)-3-(4-methoxyphenyl)quinoline, reference compound]	90.3 ± 2.62%	21.9 ± 3.55%		12.4 ± 2.67%	50.1 ± 3.47%			139 ± 2.32 µM	11.07	12.6 ± 2.16 µM	
COc1ccc(-c2nc3cc(Cl)c(Cl)cc3nc2C(O)c2ccccc2)cc1 (stereo not shown) [Compound 20a, [6,7-Dichloro-3-(4-methoxyphenyl)quinoxalin-2-yl](phenyl)methanol]	99.4 ± 3.31%	27.1 ± 1.24%		16.3 ± 3.42%	> 50%	156.8 to 157.1 °C	58.71 ± 2.86%	> 200 µM	>35.21		5.68 ± 0.81 µM
